Molecular target: T1, TLP-1 (Prunus mume, UniProt A0ABM0NSQ8)
T1 sequence (A0ABM0NSQ8 27-249): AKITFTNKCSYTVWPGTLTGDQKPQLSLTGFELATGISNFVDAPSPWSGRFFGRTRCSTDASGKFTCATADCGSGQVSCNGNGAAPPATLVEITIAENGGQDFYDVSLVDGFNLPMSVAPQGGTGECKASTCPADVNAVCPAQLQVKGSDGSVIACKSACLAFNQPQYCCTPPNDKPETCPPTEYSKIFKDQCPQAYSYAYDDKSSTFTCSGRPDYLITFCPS
Assay: catechol oxidation, absorbance at […] nm
Type: biochemical
Conditions: read-out: Relative activity (%) / 10 (mM)

For `NC(=O)CC[C@H](N)C(=O)O` [L-Glutamine], which activity at 10000 µM is on record?
Its activity at 10000 µM is 83.5 ± 2.24%.

`CCCCCCc1ccc(O)cc1O` [4-Hexylresorcinol] was tested. Which activity at 10000 µM did it give?
Its activity at 10000 µM is 15.6 ± 0.44%.
